From patent US20230121721A1, “MONOACYLGLYCEROL LIPASE INHIBITORS” (STICHTING HET NEDERLANDS KANKER INSTITUUT - ANTONI VAN …, priority 2020, published 2023) come the findings set out here.

This experiment concerns the target T1, hMAGL (MAGL-overexpressing membrane preparations from transiently transfected HEK293T cells) (Homo sapiens, UniProt Q99685).
T1 construct: expressed in transfected cells; host or cells: HEK293T (transient transfection), membrane preparations
T1 sequence (Q99685 1-303): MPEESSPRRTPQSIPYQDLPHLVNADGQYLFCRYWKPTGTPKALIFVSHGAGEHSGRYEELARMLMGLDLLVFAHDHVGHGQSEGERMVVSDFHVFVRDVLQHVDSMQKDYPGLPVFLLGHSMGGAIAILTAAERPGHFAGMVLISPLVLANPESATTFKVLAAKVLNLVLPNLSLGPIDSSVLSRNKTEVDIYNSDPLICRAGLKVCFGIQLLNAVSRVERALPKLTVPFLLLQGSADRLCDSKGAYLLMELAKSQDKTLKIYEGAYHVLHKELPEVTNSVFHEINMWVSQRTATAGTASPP
The experiment can be described thus: MAGL activity assay (2-AG hydrolysis, glycerol coupled to Amplifu Red fluorescence). The format is biochemical. The settings on record: hMAGL-overexpressing HEK293T membranes, 25 μM 2-AG substrate, 20 min. inhibitor incubation. An excerpt:
The MAGL activity assay is based on the production of glycerol from 2-arachidonoylglycerol (2-AG) hydrolysis by MAGL-overexpressing membrane preparations from transiently transfected HEK293T cells, as previously reported in van der Wel T et al., “A natural substrate-based fluorescence assay for inhibitor screening on diacylglycerol lipase”, J Lipid Res., 2015, 56(4), 927-35. The produced glycerol is coupled to the oxidation of commercially available Amplifu™ Red (Sigma-Aldrich Chemie N.V., Zwijndrecht, Netherlands) via a multi-enzyme cascade, resulting in a fluorescent signal from the dye resorufin.
Standard assays were performed in HEMNB buffer (50 mM HEPES pH 7.4, 1 mM EDTA, 5 mM MgCl2, 100 mM NaCl, 0.5% (w/v) BSA) in black, flat bottom 96-wells plates. Final protein concentration of membrane preparations from overexpressing hMAGL HEK293T cells was 1.5 μg/mL (0.3 μg per well). Inhibitors were added from 40× concentrated DMSO stocks. […] Final assay concentrations: 0.2 U/mL GK, GPO and HRP, 0.125 mM ATP, 10 μM Amplifu™ Red, 25 μM 2-AG, 5% DMSO, 0.5% ACN in a total volume of 200 μL.
For IC50 determination, the MAGL-overexpressing membranes were incubated with different inhibitor concentrations. Slopes of corrected fluorescence in time were determined in the linear interval of t=10 to t=35 min and then scaled to the corrected positive control of hMAGL-overexpressing membranes treated with vehicle (DMSO) as a 100% activity reference point. The data was exported to GraphPad Prism 5.0 and analysed in a non-linear dose-response analysis with variable slope.

Consider `CCC(F)(F)C(=O)C[S+]([O-])c1ccc(C(=O)N2CCN(c3cccc(Cl)n3)[C@@H](C)[C@@H]2C)cc1Cl` (mixture of isomers) [Example 82, (±) 1-((2-Chloro-4-(4-(6-chloropyridin-2-yl)-trans-2,3-dimethylpiperazine-1-carbonyl)phenyl)sulfinyl)-3,3-difluoropentan-2-one], for which half-maximal inhibition (IC50) required 0.123 nM. This counts as sub-nanomolar.

In the case of `C[C@H]1[C@H](C)N(c2cc(Cl)ccn2)CCN1C(=O)c1ccc([S+]([O-])CC(=O)C(C)(F)F)c(Cl)c1` (mixture of isomers) [Example 83, (±) 1-((2-Chloro-4-(4-(4-chloropyridin-2-yl)-trans-2,3-dimethylpiperazine-1-carbonyl)phenyl)sulfinyl)-3,3-difluorobutan-2-one], half-maximal inhibition (IC50) was put at 3.39 nM.

On to `CCC(F)(F)C(=O)C[S+]([O-])c1ccc(C(=O)N2CCN(c3cc(Cl)ccn3)[C@@H](C)[C@@H]2C)cc1Cl` (mixture of isomers) [Example 84, (±) 1-((2-Chloro-4-(4-(4-chloropyridin-2-yl)-trans-2,3-dimethylpiperazine-1-carbonyl)phenyl)sulfinyl)-3,3-difluoropentan-2-one], for which the IC50 – broadly, the concentration at which inhibition is half-maximal – is 2.82 nM. This IC50 and that of the compound before are within 1.5-fold of each other.

On to `C[C@H]1[C@H](C)N(c2cccc(Cl)c2)CCN1C(=O)c1ccc([S+]([O-])CC(=O)c2cccnc2)c(Cl)c1` (mixture of isomers) [Example 85, (±) 2-((2-Chloro-4-(4-(3-chlorophenyl)-trans-2,3-dimethylpiperazine-1-carbonyl)phenyl)sulfinyl)-1-(pyridin-3-yl)ethan-1-one], for which half-maximal inhibition (IC50) required 9770 nM.

For `C[C@H]1[C@H](C)N(c2cccc(Cl)c2)CCN1C(=O)c1ccc([S+]([O-])CC(=O)c2ccc(F)cc2)c(Cl)c1` (mixture of isomers) [Example 86, (±) 2-((2-Chloro-4-(4-(3-chlorophenyl)-trans-2,3-dimethylpiperazine-1-carbonyl)phenyl)sulfinyl)-1-(4-fluorophenyl)ethan-1-one], inhibition was half-maximal at 1910 nM (IC50).

Compound `C[C@H]1[C@H](C)N(c2cccc(Cl)c2)CCN1C(=O)c1ccc([S+]([O-])CC(=O)c2cccc(F)c2)c(Cl)c1` (mixture of isomers) [Example 87, (±) 2-((2-Chloro-4-(4-(3-chlorophenyl)-trans-2,3-dimethylpiperazine-1-carbonyl)phenyl)sulfinyl)-1-(3-fluorophenyl)ethan-1-one] had an IC50 of more than 10000 nM.

Regarding `C[C@H]1[C@H](C)N(c2cccc(Cl)c2)CCN1C(=O)c1ccc([S+]([O-])CC(=O)c2cccnn2)c(Cl)c1` (mixture of isomers) [Example 88, (±) 2-((2-Chloro-4-(4-(3-chlorophenyl)-trans-2,3-dimethylpiperazine-1-carbonyl)phenyl)sulfinyl)-1-(pyridazin-3-yl)ethan-1-one], half-maximal inhibition (IC50) required 251 nM.

As to `C[C@H]1[C@H](C)N(c2cccc(Cl)c2)CCN1C(=O)c1ccc([S+]([O-])CC(=O)c2cc(F)cc(F)c2)c(Cl)c1` (mixture of isomers) [Example 89, (±) 2-((2-Chloro-4-(4-(3-chlorophenyl)-trans-2,3-dimethylpiperazine-1-carbonyl)phenyl)sulfinyl)-1-(3,5-difluorophenyl)ethan-1-one], the concentration for half-maximal inhibition (IC50) is 2090 nM. This IC50 is about 8.3-fold higher than that of the compound before.

For the compound `C[C@H]1[C@H](C)N(c2cccc(Cl)c2)CCN1C(=O)c1ccc([S+]([O-])CC(=O)c2ccc(C(F)(F)F)nc2)c(Cl)c1` (mixture of isomers) [Example 90, (±) 2-((2-Chloro-4-(4-(3-chlorophenyl)-trans-2,3-dimethylpiperazine-1-carbonyl)phenyl)sulfinyl)-1-(6-(trifluoromethyl)pyridin-3-yl)ethan-1-one], the IC50 was 813 nM.

As for `C[C@H]1[C@H](C)N(c2cccc(Cl)c2)CCN1C(=O)c1ccc([S+]([O-])CC(=O)c2ccc(Cl)c(C(F)(F)F)c2)c(Cl)c1` (mixture of isomers) [Example 91, (±) 1-(4-Chloro-3-(trifluoromethyl)phenyl)-2-((2-chloro-4-(4-(3-chlorophenyl)-trans-2,3-dimethyl-piperazine-1-carbonyl)-phenyl)sulfinyl)ethan-1-one], the concentration for half-maximal inhibition (IC50) is more than 10000 nM.

With `C[C@H]1[C@H](C)N(c2cccc(Cl)c2)CCN1C(=O)c1ccc([S+]([O-])CC(=O)c2ccc(F)c(C(F)(F)F)c2)c(Cl)c1` (mixture of isomers) [Example 92, (±) 2-((2-Chloro-4-(4-(3-chlorophenyl)-trans-2,3-dimethylpiperazine-1-carbonyl)phenyl)sulfinyl)-1-(4-fluoro-3-(trifluoromethyl)phenyl)ethan-1-one], the IC50 was more than 10000 nM.

`C[C@H]1[C@H](C)N(c2cccc(Cl)c2)CCN1C(=O)c1ccc([S+]([O-])CC(=O)c2cccc(F)c2F)c(Cl)c1` (mixture of isomers) [Example 93, (±) 2-((2-Chloro-4-(4-(3-chlorophenyl)-trans-2,3-dimethylpiperazine-1-carbonyl)phenyl)sulfinyl)-1-(2,3-difluorophenyl)ethan-1-one] showed an IC50 of 575 nM.

In the case of `C[C@H]1[C@H](C)N(c2cccc(Cl)c2)CCN1C(=O)c1ccc([S+]([O-])CC(=O)c2ccc(F)c(F)c2)c(Cl)c1` (mixture of isomers) [Example 94, (±) 2-((2-Chloro-4-(4-(3-chlorophenyl)-trans-2,3-dimethylpiperazine-1-carbonyl)phenyl)sulfinyl)-1-(3,4-difluorophenyl)ethan-1-one], it took 759 nM to reach half-maximal inhibition (IC50). The IC50 values of the last two compounds are within 1.5-fold of each other.

`C[C@H]1[C@H](C)N(c2cccc(Cl)c2)CCN1C(=O)c1ccc([S+]([O-])CC(=O)c2ccccc2F)c(Cl)c1` (mixture of isomers) [Example 95, (±) 2-((2-Chloro-4-(4-(3-chlorophenyl)-trans-2,3-dimethylpiperazine-1-carbonyl)phenyl)sulfinyl)-1-(2-fluorophenyl)ethan-1-one] had an IC50 of 1620 nM.

Consider `C[C@H]1[C@H](C)N(c2cccc(Cl)c2)CCN1C(=O)c1ccc([S+]([O-])CC(=O)c2ccnnc2)c(Cl)c1` (mixture of isomers) [Example 96, (±) 2-((2-Chloro-4-(4-(3-chlorophenyl)-trans-2,3-dimethylpiperazine-1-carbonyl)phenyl)sulfinyl)-1-(pyridazin-4-yl)ethan-1-one], for which the 50% inhibitory concentration (IC50) was 708 nM.

In turn, `C[C@H]1[C@H](C)N(c2cccc(Cl)c2)CCN1C(=O)c1ccc([S+]([O-])CC(=O)c2ccc(F)cc2F)c(Cl)c1` (mixture of isomers) [Example 97, (±) 2-((2-Chloro-4-(4-(3-chlorophenyl)-trans-2,3-dimethylpiperazine-1-carbonyl)phenyl)sulfinyl)-1-(2,4-difluorophenyl)ethan-1-one] gave a concentration for half-maximal inhibition (IC50) of 234 nM. Compared with the last compound, the IC50 is about 3-fold lower.

The compound `C[C@H]1[C@H](C)N(c2cccc(Cl)c2)CCN1C(=O)c1ccc([S+]([O-])CC(=O)c2ccc(C#N)cc2)c(Cl)c1` (mixture of isomers) [Example 99, (±) 4-(2-((2-Chloro-4-(4-(3-chlorophenyl)-trans-2,3-dimethyl-piperazine-1-carbonyl)phenyl)sulfinyl)acetyl)benzonitrile] showed an IC50 of 91.2 nM. Compared with the last compound, the IC50 is about 2.6-fold lower.

As for `C[C@H]1[C@H](C)N(c2cccc(Cl)c2)CCN1C(=O)c1ccc([S+]([O-])CC(=O)c2ccncn2)c(Cl)c1` (mixture of isomers) [Example 100, (±) 2-((2-Chloro-4-(4-(3-chlorophenyl)-trans-2,3-dimethylpiperazine-1-carbonyl)phenyl)sulfinyl)-1-(pyrimidin-4-yl)ethan-1-one], the midpoint of inhibition, the IC50, lay at 87.1 nM.

In turn, `C[C@H]1[C@H](C)N(c2cccc(Cl)c2)CCN1C(=O)c1ccc([S+]([O-])CC(=O)c2cnccn2)c(Cl)c1` (mixture of isomers) [Example 101, (±) 2-((2-Chloro-4-(4-(3-chlorophenyl)-trans-2,3-dimethylpiperazine-1-carbonyl)phenyl)sulfinyl)-1-(pyrazin-2-yl)ethan-1-one] had a half-maximal inhibitory concentration (IC50) of 1100 nM.

`C[C@H]1[C@H](C)N(c2cccc(Cl)c2)CCN1C(=O)c1ccc([S+]([O-])CC(=O)c2ncccn2)c(Cl)c1` (mixture of isomers) [Example 102, (±) 2-((2-Chloro-4-(4-(3-chlorophenyl)-trans-2,3-dimethylpiperazine-1-carbonyl)phenyl)sulfinyl)-1-(pyrimidin-2-yl)ethan-1-one] gave an IC50 of 28.2 nM.

On to `C[C@H]1[C@H](C)N(c2cccc(Cl)c2)CCN1C(=O)c1ccc([S+]([O-])CC(=O)c2ccc(C(F)(F)F)cc2)c(Cl)c1` (mixture of isomers) [Example 103, (±) 2-((2-Chloro-4-(4-(3-chlorophenyl)-trans-2,3-dimethylpiperazine-1-carbonyl)phenyl)sulfinyl)-1-(4-(trifluoromethyl)phenyl)ethan-1-one], for which the midpoint of inhibition, the IC50, lay at 2950 nM.
